According to PubChem BioAssay (NCI):
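Method: 48-hour compound exposure of cells in 96-well plates, five concentrations, linear interpolation of endpoints. GI50 marks 50% less growth. TGI marks complete inhibition of growth.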

Experiments:
Assay in all cases: NCI-60 cell line screen, 48 h
SW-620 colon = tested on: SW-620 colon
SR leukemia = tested on: SR leukemia
UACC-62 melanoma = tested on: UACC-62 melanoma
OVCAR-8 ovarian = tested on: OVCAR-8 ovarian
UACC-257 melanoma = tested on: UACC-257 melanoma
SK-MEL-28 melanoma = tested on: SK-MEL-28 melanoma
MCF7 breast = tested on: MCF7 breast
786-0 renal = tested on: 786-0 renal
EKVX NSCLC = tested on: EKVX NSCLC
HT29 colon = tested on: HT29 colon

Row | Compound | GI50 (SW-620 colon) | TGI (SW-620 colon) | GI50 (SR leukemia) | TGI (SR leukemia) | GI50 (UACC-62 melanoma) | TGI (UACC-62 melanoma) | GI50 (OVCAR-8 ovarian) | TGI (OVCAR-8 ovarian) | GI50 (UACC-257 melanoma) | TGI (UACC-257 melanoma) | GI50 (SK-MEL-28 melanoma) | TGI (SK-MEL-28 melanoma) | GI50 (MCF7 breast) | TGI (MCF7 breast) | GI50 (786-0 renal) | TGI (786-0 renal) | TGI (EKVX NSCLC) | TGI (HT29 colon) | GI50 (EKVX NSCLC) | GI50 (HT29 colon)
1 | CS(=O)(=O)O[C@H]1C(=O)N(c2cc3c4ccccc4ccc3c3ccccc23)[C@@H]1c1ccccn1 | 0.401 µM | > 100 µM | 0.384 µM | > 100 µM | 0.347 µM | > 100 µM | 0.712 µM | > 100 µM | 16.9 µM | > 100 µM | 0.783 µM | > 100 µM | 0.321 µM | > 100 µM | 0.348 µM | 31.7 µM | – | – | – | –
2 | CC12CCCC(C#N)(C1)OC2=O (stereo not drawn) | – | > 100 µM | – | > 100 µM | – | > 100 µM | – | > 100 µM | – | > 100 µM | – | > 100 µM | – | – | – | > 100 µM | > 100 µM | > 100 µM | – | –
3 | CN1C(c2ccccc2)CC(C)(O)CC1c1ccccc1 (stereo not drawn) | – | > 100 µM | – | > 100 µM | – | > 100 µM | – | > 100 µM | – | > 100 µM | – | > 100 µM | – | – | – | > 100 µM | > 100 µM | > 100 µM | – | –
4 | COc1cccc(CCNC(=O)CC(c2ccccc2)(c2ccccc2)c2ccccc2)c1 | 85.3 µM | > 100 µM | – | – | 0.613 µM | > 100 µM | 4.98 µM | 47.7 µM | – | – | > 100 µM | > 100 µM | 21.5 µM | > 100 µM | 10.6 µM | > 100 µM | > 100 µM | – | 22.7 µM | –
5 | COC(=O)CC1C2(C)C3=C(C)C(c4ccoc4)CC3OC2C2OC(=O)C3(C)C=CC(=O)C1(C)C23 (stereo not drawn) | – | 4.39 µM | – | – | – | 3.79 µM | – | 5.44 µM | – | 5.02 µM | – | 2.66 µM | – | 1.95 µM | – | 2.34 µM | 3.89 µM | 2.49 µM | – | –
6 | O=C(O)CCC(=O)Oc1ccc(O)c2c1CCCC2=O | – | > 100 µM | – | > 100 µM | – | > 100 µM | – | > 100 µM | – | > 100 µM | – | > 100 µM | – | – | – | > 100 µM | > 100 µM | > 100 µM | – | –
7 | N#CC(C(=O)CCC(=O)Nc1ccc(Cl)cc1)c1ccc(Cl)cc1 (stereo not drawn) | – | > 100 µM | – | – | – | > 100 µM | – | > 100 µM | – | > 100 µM | – | – | – | – | – | > 100 µM | > 100 µM | > 100 µM | – | –
8 | Cc1cc(Cl)ccc1NC(=O)CC1SC(=NC(=O)c2ccccc2Cl)NC1=O (stereo not drawn) | – | 32.3 µM | – | 34.5 µM | – | 71.2 µM | – | > 100 µM | – | 38.6 µM | – | 44.8 µM | – | – | – | 35.7 µM | > 100 µM | 45 µM | – | –
9 | O=C(CN(Cc1ccccc1)Cc1ccccc1)N1CCc2c([nH]c3ccccc23)C1c1cccnc1 (stereo not drawn) | – | > 100 µM | – | 30.6 µM | – | 30.7 µM | – | > 100 µM | – | > 100 µM | – | > 100 µM | – | – | – | 33.4 µM | > 100 µM | 19.7 µM | – | –
10 | CCOC(=O)NC(=O)c1cn(CCCCCCCCCCC(=O)NCCCN2CCN(CCCNC(=O)CCCCCCCCCCn3cc(C(=O)NC(=O)OCC)c(=O)[nH]c3=O)CC2)c(=O)[nH]c1=O | – | > 100 µM | – | > 100 µM | – | > 100 µM | – | > 100 µM | – | > 100 µM | – | > 100 µM | – | – | – | > 100 µM | – | > 100 µM | – | –
11 | Cc1ccc2nc(Sc3c([N+](=O)[O-])ncn3C)[nH]c2c1 | – | > 100 µM | – | 42.2 µM | – | 35.7 µM | – | 41 µM | – | 38.5 µM | – | > 100 µM | – | – | – | > 100 µM | 63.9 µM | > 100 µM | – | –
12 | Nc1nc(=S)c2ncn(C3OC(CO)C(O)C3O)c2[nH]1 (stereo not drawn) | 1.7 µM | > 100 µM | – | – | 0.446 µM | 5.67 µM | 0.903 µM | > 100 µM | 31.8 µM | > 100 µM | 13.7 µM | > 100 µM | 0.389 µM | > 70.6 µM | 0.348 µM | – | > 100 µM | > 100 µM | 2.02 µM | 0.981 µM
13 | COc1ccc(CN2C(=O)/C(=C\C(=O)c3ccc(OCCN4CCCC4)cc3)c3ccccc32)cc1 | – | – | – | – | 1.84 µM | 3.38 µM | 2.66 µM | 5.78 µM | 20.2 µM | 40.3 µM | 1.79 µM | 3.42 µM | – | – | 1.68 µM | 3.19 µM | 34.2 µM | – | 11.3 µM | –
14 | N.N.N.N.N.N#Cc1nn[n-]n1.[Cl-].[Co+3] | > 100 µM | > 100 µM | > 100 µM | > 100 µM | > 100 µM | > 100 µM | > 100 µM | > 100 µM | > 100 µM | > 100 µM | > 100 µM | > 100 µM | – | – | > 100 µM | > 100 µM | > 100 µM | > 100 µM | > 100 µM | > 100 µM
15 | CC(=O)n1nnc2ccc([N+](=O)[O-])cc21 | – | > 100 µM | – | > 100 µM | – | > 100 µM | – | > 100 µM | – | > 100 µM | – | > 100 µM | – | – | – | > 100 µM | > 100 µM | > 100 µM | – | –
16 | COC(=O)C(=O)C(C#N)c1cccc(Cl)c1 (stereo not drawn) | – | > 100 µM | – | > 100 µM | – | > 100 µM | – | > 100 µM | – | > 100 µM | – | > 100 µM | – | – | – | > 100 µM | > 100 µM | > 100 µM | – | –
17 | Cn1nc(-c2ccccc2)c2c(/C=C/c3ccc(Cl)cc3)onc2c1=O | – | > 100 µM | – | – | – | > 100 µM | – | 84.3 µM | – | – | – | > 100 µM | – | – | – | 66 µM | > 100 µM | > 100 µM | – | –
18 | N#CCCN(C1=NN(C(=O)CC(=O)Nc2ccc(Cl)cc2)C(c2ccccc2)C1)c1ccc(Cl)cc1 (stereo not drawn) | – | > 100 µM | – | > 100 µM | – | > 100 µM | – | > 100 µM | – | > 100 µM | – | > 100 µM | – | – | – | > 100 µM | > 100 µM | > 100 µM | – | –
19 | Cn1cnc([N+](=O)[O-])c1Sc1nc2ccccc2o1 | – | 14.3 µM | – | 8.14 µM | – | 25.5 µM | – | 10 µM | – | 19.8 µM | – | 18.6 µM | – | – | – | 29.3 µM | 15.3 µM | 12.9 µM | – | –
20 | Cc1cncc(-c2nc(NCCc3c[nH]c4ccccc34)c3ncn(C(C)C)c3n2)c1 | 3.48 µM | 15.1 µM | – | – | 3.3 µM | 12.1 µM | 4.6 µM | > 100 µM | 1.91 µM | 3.85 µM | 2.52 µM | 6.66 µM | 4.05 µM | 15.6 µM | 2.01 µM | 6.01 µM | 35.5 µM | 5.17 µM | 6.77 µM | 2.11 µM
21 | O=CC1CCC=CC1NC(=O)OCc1ccccc1 (stereo not drawn) | – | > 100 µM | – | > 100 µM | – | > 100 µM | – | 52.3 µM | – | > 100 µM | – | > 100 µM | – | – | – | > 100 µM | > 100 µM | > 100 µM | – | –
22 | O=C(CCC(=O)Nc1ccc(Cl)cc1)CC(=O)c1ccc2ccccc2c1 | – | > 100 µM | – | > 100 µM | – | > 100 µM | – | > 100 µM | – | > 100 µM | – | > 100 µM | – | – | – | > 100 µM | > 100 µM | > 100 µM | – | –
23 | CN1C(=O)/C(=C2\S/C(=N\c3nnc(-c4ccccc4)o3)NC2=O)c2ccccc21 | > 100 µM | > 100 µM | – | – | 79.2 µM | > 100 µM | > 100 µM | > 100 µM | 34.4 µM | > 100 µM | > 100 µM | > 100 µM | 91.9 µM | > 100 µM | > 100 µM | > 100 µM | > 100 µM | > 100 µM | > 100 µM | > 100 µM
24 | O=C(Nc1ccccc1)n1cc(-c2ccccn2)c(N2CCOCC2)n1 | – | > 100 µM | – | – | – | > 100 µM | – | > 100 µM | – | > 100 µM | – | – | – | – | – | 74.7 µM | > 100 µM | 19.1 µM | – | –
25 | CN(C)CCCOc1ccc(/C=C2/CCC/C(=C/c3ccc(OCCCN(C)C)cc3)C2=O)cc1 | – | 3.73 µM | – | – | – | 3.74 µM | – | 6.5 µM | – | 3.93 µM | – | 4 µM | – | – | – | 2.59 µM | 6.84 µM | – | – | –
26 | CC[O-].CC[O-].COc1ccc(C(=O)[CH-]C(C)=O)cc1OC.COc1ccc(C(=O)[CH-]C(C)=O)cc1OC.[Ti+4] | > 100 µM | > 100 µM | 31.1 µM | 83.4 µM | 56.5 µM | > 100 µM | 81.9 µM | > 100 µM | > 100 µM | > 100 µM | > 100 µM | > 100 µM | – | – | 48 µM | > 100 µM | 79.6 µM | > 100 µM | 24.6 µM | 47.8 µM
27 | CN1CCN(Cc2ccc(NC(=O)c3cncc(C#Cc4c(N)ncc5c(F)cccc45)c3)cc2C(F)(F)F)CC1 | 0.454 µM | 1.16 µM | – | – | 0.845 µM | 1.81 µM | 0.988 µM | 2.24 µM | 0.854 µM | 1.76 µM | 0.831 µM | 1.56 µM | 0.55 µM | 1.31 µM | 0.873 µM | 1.62 µM | 1.46 µM | 1.08 µM | 0.732 µM | 0.305 µM
28 | Cc1cc2nc3c(=O)[nH]c(=O)nc-3n(CC(O)C(O)C(O)CO)c2cc1N (stereo not drawn) | – | > 100 µM | – | – | – | > 100 µM | – | > 100 µM | – | – | – | > 100 µM | – | – | – | > 100 µM | > 100 µM | > 100 µM | – | –
29 | O=C[C@]12CC=C3OC4OC5(CCCCC5)OC4[C@H]3[C@H]1C(=O)C=CC2=O (stereo partly drawn) | – | 38.9 µM | – | 7.93 µM | – | 52.6 µM | – | 34.6 µM | – | 45.3 µM | – | 96.3 µM | – | – | – | 21.5 µM | 39.8 µM | > 100 µM | – | –
